≈ marks a conversion by molar mass, not a printed value. Read-outs that look alike come from different tables or passages of the source.
How the values were obtained:
[1] = oral, liver first pass effect; cited from earlier work
[2] = system: MCF-7; assay: Autophagy in MCF-7; format: cell-based; conditions: 50 μM for 9 h and 24 h
[3] = system: BGC-823; assay: Anti-cancer cells proliferation activity (MTT, 48 h); format: cell-based; conditions: Homo sapiens, BGC-823, MTT
Description: (§1) Anti-cancer cells proliferationactivity of in vitro CH-j and CH-f were shown in TABLE 2 for the results of the screening of 5 cancers cells.
FIG. 2: The initial screening results of the anticancer activity of BGC-823 (MTT, for 48 h), and X-coordinate is the drug concentration (MTT, for 48 h), and Y-coordinate the cell survival rate (%) in vitro.

[4] = Tissue distribution in rat, 2 h; format: in vivo; conditions: rat
Description: The distribution results of CH-j tissue distribution were shown in FIG. 6, when CH-j 100 mg/kg rat by venous intravenous (i.v.) or oral (p.o.) 2 h. […] CH-j by oral in the stomach concentration of the large, about 2 time higher than other tissues. […] Compared with the intravenous administration, the oral administration was completely absorbed and the bioavailability was close to 100%.
FIG. 6: 2 h distribution of the drug (100 mg/kg) by CH-j rats: Y-coordinate is the concentration of CH-j (μg/g), by intravenous (i.v.), by oral (p.o.).

[5] = system: 5 cancers cells (MCF-7, H-460, BGC-823, PC-3, Hep G2); assay: Anti-cancer cells proliferation activity, average of 5 cancer cells; format: cell-based; conditions: for IC50: average of 5 cancer cells
From the text: as §1

[6] = pKa; format: physicochemical
Description: (§2) CH-j is pKa 5.3, log P 1.63 in Octanol/Water at 37° C. […] (BA-j 77m/ml). CH-j belongs to BCS II (low solubility, high permeability) and solubility presents the pH dependence. […] CH-j is a pH dependent fast release. […] It is speculated that CH-j has more appropriate log P and solubility with more likely entering tissue cells than others solubility acetyl Chrysin Mannich base derivatives.
(§3) (about 20 times BA-f 277 μg/ml) and 564 μg/ml in water at 37° C. (about 1000 times BA-f 0.53m/ml). CH-f is BCS I (high solubility and permeability) and solubility presents the pH dependence. It is speculated that CH-f has more appropriate log P and solubility with entering systemic (blood system and tissue cells) than others solubility acetyl Chrysin Mannich base derivatives.

[7] = BA-j, see Fitoterapia, 2015; cited from earlier work
[8] = log P in Octanol/Water; format: physicochemical; conditions: octanol/water, Octanol/Water at 37° C.
Description: (§4) The solubility and log P of acetyl ChrysinMannich base derivatives see TABLE 1.
as §2, §3

[9] = molecular target: CDK1 (Homo sapiens, UniProt P06493); assay: CDK1 inhibition activity; format: biochemical; conditions: for CDK1 50% inhibitory concentration: read-out: inhibiting CDK1 CC50
Sequence of CDK1 (P06493 whole entry, species assumed): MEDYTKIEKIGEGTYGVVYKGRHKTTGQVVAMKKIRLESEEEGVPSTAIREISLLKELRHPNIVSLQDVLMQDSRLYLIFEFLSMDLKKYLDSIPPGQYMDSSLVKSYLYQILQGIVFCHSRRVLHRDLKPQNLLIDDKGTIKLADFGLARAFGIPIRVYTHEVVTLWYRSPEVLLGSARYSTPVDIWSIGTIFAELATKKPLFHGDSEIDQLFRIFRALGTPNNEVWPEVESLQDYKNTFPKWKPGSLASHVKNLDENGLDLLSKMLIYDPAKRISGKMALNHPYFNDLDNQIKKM
Sequence of CDK1 (P14635 whole entry partner, species assumed): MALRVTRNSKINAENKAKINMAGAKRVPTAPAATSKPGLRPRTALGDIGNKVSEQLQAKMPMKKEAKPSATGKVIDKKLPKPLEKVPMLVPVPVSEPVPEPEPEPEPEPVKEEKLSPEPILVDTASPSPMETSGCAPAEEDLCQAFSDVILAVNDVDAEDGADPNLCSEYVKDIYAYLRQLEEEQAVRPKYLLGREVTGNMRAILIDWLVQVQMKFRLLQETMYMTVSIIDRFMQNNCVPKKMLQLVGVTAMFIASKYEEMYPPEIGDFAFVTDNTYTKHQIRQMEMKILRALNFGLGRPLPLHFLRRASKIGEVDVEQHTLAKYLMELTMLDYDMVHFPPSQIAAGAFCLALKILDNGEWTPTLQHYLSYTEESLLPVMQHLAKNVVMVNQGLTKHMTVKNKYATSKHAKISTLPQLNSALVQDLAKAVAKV

[10] = Pharmacokinetics by oral in monkey (urine drug concentration-time curve); format: in vivo; conditions: monkey (n = 6), 3 mg/kg in Table 4, 5 mg/kg in text
Description: Chromatographic conditions and the system applies: with C18 chromatographic column (acid the tall secretory effect, 5 μm, 4.6*150 mm), in acetonitrile-methanol-water-mesylate (25:20:55:0.15) as mobile phase, detection UV 283 nm, the velocity 1 ml/min, and the sample volume 20 μl. The theoretical plate number is not less than 2000 according to CH-j peak.
Sample solution: after the macaques were drugged, the catheter was inserted. The urine by oral CH-j 5 mg/kg is collected, added the methanol at 1:4 (v:v), centrifuge and remove the liquid to measure. Control solution is CH-j methanol solution 5 μg/ml. The log P of CH-j is larger, the fat solubility strong, and absorption distribution in the body very rapid, the urine drug concentration-time curve consistent with the typical two-compartment model. Tmax1, 1.3 h, Cmax1 is […]. […] The apparent distribution volume (Vd) 42 L, mainly distributed in body fluid (BA-j Vd 12.6 L, mainly distributed in blood. See Fitoterapia, 2015, 107: 36-34)
FIG. 5: The concentration of urine drug concentration-time curve in monkey (n=6) by CH-j oral 5 mg/kg, X-coordinate is oral CH-j time (h) and Y-coordinate is the concentration of CH-j (μM).

[11] = system: PBMCs, activated lymphocytes, human normal Liver cells; assay: H2O2 level in blood and normal cells, PF1-H2O2 fluorescent probe; format: cell-based; conditions: CH-j: PBMCs and activated lymphocytes; BA-j: activated lymphocyte
Description: The cells are cancer cells (MCF-7, GBC-823, Hep G2) and normal cells (Liver, COS-7, PBMCs). According to the literature [Scientific Reports, 2015, 5: 13626; Anti-cancer Agents in Medicinal Chemistry, 2016, 16: 914-924.], in vitro cultured cells was given to CH-j 25 μM for 3.5 h, added PF1-H2O2 selective fluorescence probe 10 μM for 0.5 h and detected the concentration of H2O2 in cells, and performed fluorescence imaging by results shown in FIG. 1.
FIG. 1-3, FIG. 1-4, The fluorescence imaging by PF1-H2O2 10 μM is that CH-j […] for 4 h affected the level of H2O2 in MCF-7, GBC-823, Hep G2 and Liver.
FIG. 1-3: CH-j/BA-j affects the levels of H2O2 in blood cells, X-coordinate is the concentration of CH-j/BA-j concentration (μM), and Y-coordinate the intracellular levels of H2O2 (μM) for 4 h with PF1-H2O2 10 μM by Fluorescence Microplater Reader (488 nm/525 nm).

[12] = Solubility in Octanol, water and pH media; format: physicochemical
Description: as §4, §2, §3

[13] = system: MCF-7; assay: Anti-cancer cells proliferation activity (MTT, 48 h); format: cell-based; conditions: Homo sapiens, MCF7, MCF-7, MTT
From the text: as §1

[14] = system: PC-3; assay: as above; format: cell-based; conditions: Homo sapiens, PC-3, MTT
From the text: as §1

[15] = system: Hep G2; assay: as above; format: cell-based; conditions: Homo sapiens, HepG2
From the text: as §1

[16] = system: H-460; assay: as above; format: cell-based; conditions: Homo sapiens, NCI-H460, H-460, MTT
From the text: as §1

[17] = Protein binding rate and reversible binding rate; format: in vitro ADME; conditions: plasma proteins
Description: (§5) The combination of drugs and plasma proteins is usually reversible, and the affinity strength is determined by the reversible binding rate of the drug-protein complex. Only free drugs can spread to the tissue through the lipid membrane. By modifying the structure of the drug, the effect of the drug on the target site can be improved by improving the reversible binding rate of the drug-protein complex.
(§6) The acidic part of polyphenol hydroxyl group is combined with lysine alkaline site in albumin structure. The protein binding rate and reversible binding rate of CH-j see TABLE 2.

[18] = system: plasma proteins; assay: Protein binding rate and reversible binding rate; format: in vitro ADME
Description: as §5, §6

[19] = Pharmacokinetics by oral in monkey (urine drug concentration-time curve); format: in vivo; conditions: rhesus, monkey (n = 6), 3 mg/kg
[20] = system: MCF-7; assay: Hoechst 33258 fluorescence staining, apoptosis; format: cell-based; conditions: 0, 5, 10, 20 μM for 24 h
Description: Hoechst 33258 is an active fluorescent dye with DNA specific binding, which is mainly combined with base area of DNA, which emits blue fluorescence when stimulated by ultraviolet light. The living cells emit uniform fluorescence, the apoptotic cells are bright blue fluorescence due to their chromatin fixation, dense and concentrated nuclei.
MCF-7 was treated with 0, 5, 10, 20 μM of CH-f and CH-j for 24 h, Hoechst 33258 fluorescence staining, and cell morphological changes were shown in FIG. 3-1. […] CH-f and CH-j are completely different from the cytotoxic drug HCPT, which appears to be apoptotic at low doses and necrotic at high doses in BGC-823.
FIG. 3-1 Hoechst 33258 staining results for MCF-7.

[21] = system: Bcl-2; assay: Bcl-2 expression in MCF-7; format: cell-based; conditions: 10 μM for 24 h
[22] = system: MCF-7 and COS-7; assay: NO level, Rh-NO fluorescent probe imaging; format: cell-based; conditions: 25 μM for 12, 24, 48 h, Rh-NO probe 5 μM
Description: [Organic Letters, 2008, 10: 2357-2360] […] This is because of cycloalkylamine-methyl releasing NO by Cope reaction, and the higher level of NO 4-methylpiperazine than 4-hydroxypiperidine.
FIG. 1-6: The performed fluorescence imaging with Rh—NO 5 μM, and add 25 μM of CH-j and CH-f for 12, 24, 48 h, affected the level of NO for 12, 24 and 48 h in MCF-7 and COS-7 by Single beam electron confocal fluorescence microscope (488/604 nm).

[23] = in vivo; cited from earlier work
[24] = organic solvent or mixture, Octanol, 37° C., read-out: Solubility in Octanol

O=c1cc(-c2ccccc2)oc2c(CN3CCC(O)CC3)c(O)c(O)c(O)c12 [BA-j, 5,6,7-trihydroxy-8-(4-hydroxy-piperidin-1-ylmethyl)-2-phenyl-chromen-4-one, reference compound]
Glucose aldehyde acid metabolism [1]: < 5% | Autophagy [2]: without | IC50 [3]: 12.3 ± 1.73 µM | Detection of prototype drug in blood, urine, tissues [4]: prototype drug can not be detected in the tissues | IC50 [5]: 4.7 µg/mL | IC50 ([5]; MTT, 48 h): 12.3 µM | pKa [6]: 5.5 | V d [7]: 12.6 L | logP [8]: 0.69 | CDK1 50% inhibitory concentration [9]: 300 nM | V d ([10]; oral): 12.6 L | t1/2β ([10]; oral): 4.2 h | Tmax ([10]; rhesus, monkey, urine, po, read-out: T max (Tmax1)): 2 h | Cmax ([10]; rhesus, urine, oral): 25.4 µM | Dose dependence of H2O2 level [11]: significant dose-dependent manner, with mass apoptosis and without necrosis | solubility [12, 24]: 377 µg/mL (≈ 983 µM) | solubility ([12]; water, 37° C., text values of BA-j and BA-f, read-out: Solubility in water): 77 µg/mL (≈ 201 µM) | IC50 [13]: 10.6 ± 0.3 µM | IC50 [14]: 12.8 ± 2.06 µM | IC50 [15]: 15.7 ± 1.3 µM | IC50 [16]: 13.7 ± 1.83 µM | fraction unbound ([17]; average of 3 concentrations, read-out: Protein binding rate AV (converted)): 0.082 | fraction unbound at 12.5 μg/ml ([17]; drug concentration 12.5 μg/ml): 0.067 | fraction unbound at 25 μg/ml ([17]; drug concentration 25 μg/ml): 0.075 | fraction unbound at 50 μg/ml ([17]; drug concentration 50 μg/ml): 0.104 | Reversie binding rate AV ([18]; average of 3 concentrations): 20.1% | Reversie binding rate ([18]; drug concentration 12.5 μg/ml): 19.1% | Reversie binding rate ([18]; drug concentration 25 μg/ml): 21.0% | Reversie binding rate ([18]; drug concentration 50 μg/ml): 20.2% | AUC(0-inf) [19]: 71.5 µM·h

CC(=O)c1c(O)c(CN2CCN(C)CC2)c2oc(-c3ccccc3)cc(=O)c2c1O [CH-f, 6-Acetyl-5,7-dihydroxy-8-(4-methylpiperazin-1-ylmethyl)-2-phenyl-chromen-4-one]
Autophagy [2]: can cause autophagy | IC50 [3]: 5.2 ± 1.21 µM | Anti-proliferative activity, times stronger than BA-j [5]: 2 times | Anti-proliferative activity, times stronger than Chrysin [5]: 5 times | IC50 [5]: 2.3 µg/mL | IC50 ([5]; MTT, 48 h): 5.6 µM | Apoptosis by Hoechst 33258 staining [20]: apoptosis cell percentage in dose dependent increase | pKa [6]: 4.9 | logP [8]: 0.99 | CDK1 inhibition, times stronger than BA-j [9]: about 2 times | CDK1 50% inhibitory concentration [9]: 130 nM | Bcl-2 expression [21]: Bcl-2 expression can be suppressed | BCS class [12]: BCS I | Solubility in water relative to BA-f ([12]; 37° C.): about 1000 times | Solubility in Octanol relative to BA analogue ([12]; CH-j vs BA-j, CH-f vs BA-f, 37° C.): about 20 times | solubility [12, 24]: 5510 µg/mL (≈ 13500 µM) | solubility ([12]; water, 37° C., read-out: Solubility in H2O): 564 µg/mL (≈ 1380 µM) | IC50 [13]: 5.2 ± 1.24 µM | IC50 [14]: 5.1 ± 1.17 µM | IC50 [15]: 6.1 ± 1.45 µM | IC50 [16]: 5.6 ± 1.33 µM | Level of NO, red fluorescence [22]: stronger red fluorescence than CH-j in MCF-7

CN1CC[C@H](c2c(O)cc(O)c3c(=O)cc(-c4ccccc4Cl)oc23)[C@H](O)C1 [Flavopiridol]
Intravenous drip steady plasma concentration [23]: 0.27 µM
